Earlier results, collected in paper PMC7870075, “Physicochemical properties and formulation development of a novel compound inhibiting Staphylococcus aureus biofilm formation” (PLoS ONE, 2021).

Design: method as in PMID 23433668
Conditions: cited from earlier work

Q: With `C=CCn1c(NCC)nc2c(c1=O)C(C)(C)Cc1cc(OC)ccc1-2` [CCG-203592] as the compound, how does the “half-life in mouse liver microsomes (t1/2)” value read?
A: 0.8 min
